Data published in PMC2758489 (Journal of neurochemistry, 2009).

Target: tau (Homo sapiens, UniProt P10636, P618L)
Assay: heparin-induced fibrillization, ThT fluorescence
Format: biochemical

tau, sequence (P10636 561-689 P618L): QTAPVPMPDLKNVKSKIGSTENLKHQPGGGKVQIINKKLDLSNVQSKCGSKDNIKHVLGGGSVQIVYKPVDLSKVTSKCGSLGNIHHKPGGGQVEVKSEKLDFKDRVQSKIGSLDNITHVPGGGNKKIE

Structure (SMILES) | IC50
C/C=C(/C=O)[C@@H](CC=O)CC(=O)OCCc1ccc(O)cc1 [compound 1, (-)-oleocanthal] | ~2.9 µM
C/C=C(/C=O)[C@H](CC=O)CC(=O)OCCc1ccc(O)cc1 [(+)-oleocanthal] | ~3.5 µM
